A value given as a limit tells only on which side of the number the result lay.

This note sets out measurements from patent US7988952B2, “Delivery of drug esters through an inhalation route” (Alexza Pharmaceuticals, Inc., priority 2001, dated 2011).

Data set [1] is described as follows: Volatilization from halogen bulb; purity of the aerosol by reverse-phase HPLC. The class given is physicochemical. Conditions: thermal vapor from coated aluminum foil on 300 watt halogen tube, 60 V 5-12 s or 90 V 2.5-3.5 s; HPLC at 225 nm. On the procedure:
A solution of drug in approximately 120 μL dichloromethane is coated on a 3.5 cm×7.5 cm piece of aluminum foil (precleaned with acetone). The dichloromethane is allowed to evaporate. The coated foil is wrapped around a 300 watt halogen tube (Feit Electric Company, Pico Rivera, Calif.), which is inserted into a glass tube sealed at one end with a rubber stopper. Running 60 V of alternating current (driven by line power controlled by a variac) through the bulb for 5-12 s or 90 V for 2.5-3.5 s affords thermal vapor (including aerosol), which is collected on the glass tube walls. (When desired, the system is flushed through with argon prior to volatilization.) Reverse-phase HPLC analysis with detection by absorption of 225 nm light is used to determine the purity of the aerosol.
Table 1, which follows, provides data from drugs volatilized using the above-recited general procedure.

Data set [2] is described as follows: Hydrolysis studies of drug esters in PBS solution (pH 7.5). Conditions: PBS pH 7.5, room temperature, read-out: t1/2 for hydrolysis. The data set is classed as physicochemical. On the procedure:
Drug ester (20 μL, 10 mM acetonitrile) is added to 1 mL PBS solution (pH 7.5) at room temperature. At intermittent time points, an aliquot of the resulting mixture is injected into an HPLC to obtain the ratio of drug ester to drug acid or drug alcohol. An Arrhenius plot of the data provides a t1/2 for hydrolysis.

The nature of data set [3]: Human serum hydrolysis studies of drug esters. The data set is classed as in vitro ADME. Conditions: 37° C., read-out: t1/2 for hydrolysis. On the procedure:
Human serum (2.34 mL) is placed in a test tube. To the serum is added 260 μL of a 10 mM solution of drug ester in acetonitrile. The tube is placed in a 37° C. incubator, and at various time points a 500 μL aliquot is removed. The aliquot is mixed with 500 μL methanol, and the mixture is vortex mixed and centrifuged. A sample of the supernatant is analyzed by HPLC obtain the ratio of drug ester to drug acid or drug alcohol. An Arrhenius plot of the data provides a t1/2 for hydrolysis.

For `CC(=O)Oc1ccc2c(c1OC(C)=O)-c1cccc3c1C(C2)N(C)CC3.Cl` (stereo not drawn) [Apomorphine Diacetate-HCl], the “AEROSOL PURITY” value in data set [1] came to 94%.

Take `CCOC(=O)Cc1c(C)n(C(=O)c2ccc(Cl)cc2)c2ccc(OC)cc12` [Indomethacin Ethyl Ester]: the “AEROSOL PURITY” value in data set [1] is reported as more than 99%.

As for `COC(=O)Cc1c(C)n(C(=O)c2ccc(Cl)cc2)c2ccc(OC)cc12` [Indomethacin Methyl Ester], in data set [1], the “AEROSOL PURITY” value was found to be 99%.

In the case of `COc1ccc2c(c1)c(CC(=O)OCCN(C)C)c(C)n2C(=O)c1ccc(Cl)cc1` [Indomethacin Norcholine Ester], the “AEROSOL PURITY” value in data set [1] is reported as 100%.

Consider `CCOC(=O)C(C)c1cccc(C(=O)c2ccccc2)c1` (stereo not drawn) [Ketoprofen Ethyl Ester], for which the “AEROSOL PURITY” value in data set [1] came to 99.65%. In data set [2], the half-life at 0.196 mM was more than 48 h. Besides, the half-life at 1 mM in data set [3] was 3.73 h.

For `COC(=O)C(C)c1cccc(C(=O)c2ccccc2)c1` (stereo not drawn) [Ketoprofen Methyl Ester], the “AEROSOL PURITY” value in data set [1] amounted to 99%. Besides, in data set [2], the half-life at 0.196 mM is more than 48 h. Besides, the half-life at 1 mM in data set [3] amounted to 2.4 h.

Take `CC(C(=O)OCCN(C)C)c1cccc(C(=O)c2ccccc2)c1` (stereo not drawn) [Ketoprofen Norcholine Ester]: the “AEROSOL PURITY” value in data set [1] is given as 100%.

In the case of `CCOC(=O)C1CCn2c(C(=O)c3ccccc3)ccc21` (stereo not drawn) [Ketorolac Ethyl Ester], the “AEROSOL PURITY” value in data set [1] is more than 99%.

In the case of `COC(=O)C1CCn2c(C(=O)c3ccccc3)ccc21` (stereo not drawn) [Ketorolac Methyl Ester], the “AEROSOL PURITY” value in data set [1] stood at 100%.

Regarding `CN(C)CCOC(=O)C1CCn2c(C(=O)c3ccccc3)ccc21` (stereo not drawn) [Ketorolac Norcholine Ester, 2-(N,N-Dimethylamino)Ethyl Ester of Ketorolac], in data set [1], the “AEROSOL PURITY” value was 100%.

As to Apomorphine Diacetate, in data set [1], the “AEROSOL PURITY” value turned out to be 96.9%.
